This passage reports GI50 and TGI results from PubChem BioAssay (NCI).

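48-hour exposure; five concentrations; linearly interpolated endpoints. GI50 is the concentration that inhibits growth by half. TGI: concentration producing complete growth inhibition.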 Some results are limits rather than exact numbers.

Holding throughout (assay): NCI tumour cell line growth inhibition, 48 h
The subject of test [1] is A498 renal.
The test system of test [2] is NCI-H23 lung.
In test [3] the test system is CAKI-1 renal.
For test [4], the system named is IGROV1 ovarian.
The subject of test [5] is HCT-116 colon.
For test [6], the system named is OVCAR-4 ovarian.
Test [7] deals with CCRF-CEM leukemia.
In test [8] the test system is HOP-92 NSCLC.
For test [9], the system named is MALME-3M melanoma.
Test [10] relates to MOLT-4 leukemia.

In the case of `CN(C)c1ccc2cc(-c3cc4c(oc3=O)-c3ccccc3OC4O)c(=O)oc2c1` (stereo not given), the GI50 in [1] is 5.67 µM; in [2] it was 1.41 µM; in [3] it was 7.07 µM; in [4], 5.07 µM; in test [5], 1.44 µM; in test [6], 0.55 µM. The GI50 was 2.54 µM in test [7], 7.49 µM in test [8], 5.98 µM in test [9] and 0.919 µM in [10]. Moreover, the TGI in test [1] is 23.5 µM; in test [2], 13.4 µM; in test [3], above 25 µM; in test [4], 12 µM; in test [5] it was above 25 µM; in test [6], above 25 µM. Moreover, the TGI in test [7] is 7.95 µM; in test [8] it was 17.7 µM; in test [9], 14.6 µM; in test [10], 5.51 µM.

With `C=C1SC(=Nc2ccccc2Cl)N(C(=O)c2sc3ccccc3c2Cl)C1(C)C`, the GI50 in test [1] is 4.04 µM; in test [2], 4.41 µM; in test [3], 2.73 µM; in [4], 6.2 µM; in test [5], 8.01 µM; in test [6], 5.54 µM. In addition, the GI50 is 3.93 µM in [7], 3.47 µM in test [8], 2.01 µM in test [9] and 3.47 µM in [10]. In addition, the TGI was above 57.5 µM in test [1]; above 100 µM in test [2]; 19.4 µM in test [3]; above 100 µM in test [4]; above 44.5 µM in [5]; above 100 µM in [6]. In addition, the TGI in test [7] is above 25.3 µM; in test [8], above 22.8 µM; in test [9], 34.6 µM; in test [10], above 25.4 µM.

Regarding `O=C1CC2C(=O)C1C(C(=O)O)C2C(=O)O` (stereo not given), the TGI in test [1], in [2], in test [3], in test [4], in test [5] and in [6] was above 100 µM throughout. In addition, the TGI in test [7], in test [8], in test [9] and in [10] was above 100 µM each time.

With `CN(C1=NS(=O)(=O)N=C(N(C)c2ccccc2)O1)c1ccccc1`, the TGI in test [1] was 42.1 µM; in test [2] it was 28.3 µM; in [3], 45.4 µM; in [4], 75.7 µM; in [5], 27.6 µM; in test [6] it was 51.5 µM. The TGI is above 100 µM in test [7], 54.6 µM in [8], 49.7 µM in test [9] and above 100 µM in [10].

Turning to `COc1c(B(O)O)cccc1-c1nc2c(F)cc3[nH]ncc3c2c2c1CCCC2`, the GI50 was 0.172 µM in [1]; 1.72 µM in [2]; 0.333 µM in test [3]; 1.41 µM in test [4]; 0.422 µM in test [5]; 5.49 µM in test [6]. The GI50 is 0.633 µM in [7], 0.0184 µM in [8], 3.71 µM in test [9] and 0.844 µM in test [10]. Also, the TGI is 3.31 µM in test [1]; 10.8 µM in test [2]; 3.26 µM in test [3]; 23.5 µM in test [4]; above 53.6 µM in test [5]; 58.3 µM in [6]. In addition, the TGI in test [7] was 6.92 µM; in [8] it was 56.8 µM; in test [9], 9.11 µM; in test [10], above 100 µM.

With `N#CC(C(=O)CCC(=O)Nc1ccc(Cl)cc1)c1ccccc1Cl` (stereo not given), the TGI in [1], in test [2], in test [3], in test [4], in test [5] and in test [6] was above 100 µM each time. Besides, the TGI in test [7], in [8], in test [9] and in test [10] was above 100 µM in each case.

For `O=C1NC(=O)C(=O)C(c2nc3ccccc3s2)C1=O`, the TGI in test [1], in test [2], in test [3], in [4], in [5] and in test [6] was above 100 µM throughout. For the same compound, the TGI in [7], in test [8], in test [9] and in test [10] was above 100 µM each time.

As for `CCN(CC)C(=O)CNC(=O)OC(C)(C)C`, the TGI in test [1], in test [2], in [3], in [4], in test [5] and in test [6] was above 100 µM in each case. In addition, the TGI in [7], in [8], in test [9] and in [10] was above 100 µM in each case.

For `O=C1/C=C/[C@@H](O)[C@@H]2C[C@@H](O)C[C@H]2/C=C/CCC[C@H](CO)O1`, the GI50 in test [1] was 1.31 µM; in test [2], 2.25 µM; in test [3], 3.74 µM; in [4] it was 4.2 µM; in [5] it was 2.52 µM; in [6] it was 2.07 µM. The GI50 in [7] was 4.19 µM; in test [8] it was 2.76 µM; in test [9], 1.93 µM; in test [10], 3.11 µM. Also, the TGI is above 100 µM in test [1]; above 100 µM in test [2]; above 100 µM in test [3]; above 100 µM in [4]; 6.54 µM in test [5]; above 100 µM in [6]. Besides, the TGI in test [7] was above 100 µM; in [8], above 100 µM; in test [9], 7.19 µM; in test [10], above 100 µM.

As to `CCCCCCCC(=O)OCC1OC(n2cc(F)c(=O)[nH]c2=O)C(NC(=O)OCc2ccccc2)C(OC(=O)CCCCCCC)C1O` (stereo not given), the TGI in [1] was above 100 µM; in test [2], above 100 µM; in test [3], above 100 µM; in test [4], above 100 µM; in test [5] it was above 100 µM; in test [6], 83 µM. For the same compound, the TGI in [7] was 66.1 µM; in test [8], 61.4 µM; in test [9], 44.2 µM; in test [10], above 100 µM.
